Like-named read-outs stand apart in the source and are kept apart here.
Assays:
CDK1/CycB = target: T1, CDK1/CycB (Homo sapiens, UniProt P06493); test: CDK1/CycB kinase assay; assay type: biochemical; settings: Table I
T1 construct: GST; purchased ProQinase GmbH, Freiburg; host or cells: baculovirus-infected insect cells (Sf9)
Protocol: Recombinant CDK1- and CycB-GST fusion proteins, purified from baculovirus-infected insect cells (Sf9), were purchased from ProQinase GmbH, Freiburg. Histone IIIS, which was used as a kinase substrate, is commercially available from the Sigma Company.
CDK1/CycB (200 ng/measuring point) was incubated for 15 minutes at 22° C. in the presence of various concentrations of test substances (0 μm, as well as within the range of 0.01-100 μm) in assay buffer [50 mmol of tris/HCl, pH 8.0, 10 mmol of MgCl2, 0.1 mmol of Na ortho-vanadate, 1.0 mmol of dithiothreitol, 0.5 μm of adenosine triphosphate (ATP), 10 μg/measuring point of histone IIIS, 0.2 μCi/measuring point of 33P-gamma ATP, 0.05% NP40, 12.5% dimethyl sulfoxide]. The reaction was stopped by adding EDTA solution (250 mmol, pH 8.0, 14 μl/measuring point).
From each reaction batch, 10 μl was applied to P30 filter strips (Wallac Company), and non-incorporated 33P-ATP was removed by three washing cycles of the filter strips for 10 minutes each in 0.5% phosphoric acid. After the filter strips were dried for 1 hour at 70° C., the filter strips were covered with scintillator strips (MeltiLex™ A, Wallac Company) and baked for one hour at 90° C. The amount of incorporated 33P (substrate phosphorylation) was determined by scintillation measurement in a gamma-radiation measuring device (Wallac).

CDK2/CycE = target: T2, CDK2/CycE (Homo sapiens, UniProt P24941); test: CDK2/CycE kinase assay; assay type: biochemical
T2 construct: GST; purchased ProQinase GmbH, Freiburg; host or cells: baculovirus-infected insect cells (Sf9)
Protocol: Recombinant CDK2- and CycE-GST-fusion proteins, purified from baculovirus-infected insect cells (Sf9), were purchased from ProQinase GmbH, Freiburg. Histone IIIS, which was used as a kinase substrate, was purchased from the Sigma Company.
The reaction was stopped by adding EDTA solution (250 mmol, pH 8.0, 14 μl/measuring point).
From each reaction batch, 10 μl was applied to P30 filter strips (Wallac Company), and non-incorporated ^33P-ATP was removed by subjecting the filter strips to three washing cycles for 10 minutes each in 0.5% phosphoric acid. After the filter strips were dried for one hour at 70° C., the filter strips were covered with scintillator strips (MeltiLex™ A, Wallac Company) and baked for one hour at 90° C. The amount of incorporated ^33P (substrate phosphorylation) was determined by scintillation measurement in a gamma-radiation measuring device (Wallac).

MCF7 = test: Proliferation assay MCF7; assay type: cell-based; settings: Homo sapiens, MCF7, 96 h, 4 days incubation, crystal violet
Excerpt: (§1) Cultivated human tumor cells (MCF7, […] human breast cancer cells, relative to ATCC HTB22; NCI-H460, human non-small-cell lung cancer cells, ATCC HTB-177, HCT 116, human colon cancer cells, ATCC CCL-247; DU 145, hormone-independent human prostate cancer cells, ATCC HTB-81; MaTu-MDR, hormone-independent, multiple pharmaceutical agent-resistant human breast cancer cells, EPO-GmbH, Berlin) were flattened out at a density of about 5000 cells/measuring point, depending on growth rates of the respective cells in a 96-well multititer plate in 200 μl of the corresponding growth medium. After 24 hours, the cells of one plate (zero-point plate) were colored with crystal violet (see below), while the medium of the other plates was replaced by fresh culture medium (200 μl), to which the test substances were added at various concentrations (0 μmol, as well as in the range of 0.01-30 μmol; the final concentration of the solvent dimethyl sulfoxide was 0.5%). The cells were incubated for 4 days in the presence of test substances. The cell proliferation was determined by coloring the cells with crystal violet: the cells were fixed by adding 20 μl/measuring point of an 11% glutaric aldehyde solution for 15 minutes at room temperature. After three washing cycles of the fixed cells with water, the plates were dried at room temperature. The cells were colored by adding 100 μl/measuring point of a 0.1% crystal violet solution (pH was set at 3 by adding acetic acid). After three washing cycles of the colored cells with water, the plates were dried at room temperature. The dye was dissolved by adding 100 μl/measuring point of a 10% acetic acid solution. The extinction was determined by photometry at a wavelength of 595 nm. The change of cell growth, in percent, was calculated by standardization of the measured values to the extinction values of the zero-point plate (=0%) and the extinction of the untreated (0 μm) cells (=100%).

[1] = target: T3, VEGF Receptor tyrosine kinase-2 (Homo sapiens, UniProt P35968); test: VEGF Rezeptor-2 kinase assay; assay type: biochemical; settings: Table I; read-out: VEGF-R2 IC50
T3 construct: GST; made in house; host or cells: baculovirus-infected insect cells (Sf9)
T3 sequence (P35968 20-1356): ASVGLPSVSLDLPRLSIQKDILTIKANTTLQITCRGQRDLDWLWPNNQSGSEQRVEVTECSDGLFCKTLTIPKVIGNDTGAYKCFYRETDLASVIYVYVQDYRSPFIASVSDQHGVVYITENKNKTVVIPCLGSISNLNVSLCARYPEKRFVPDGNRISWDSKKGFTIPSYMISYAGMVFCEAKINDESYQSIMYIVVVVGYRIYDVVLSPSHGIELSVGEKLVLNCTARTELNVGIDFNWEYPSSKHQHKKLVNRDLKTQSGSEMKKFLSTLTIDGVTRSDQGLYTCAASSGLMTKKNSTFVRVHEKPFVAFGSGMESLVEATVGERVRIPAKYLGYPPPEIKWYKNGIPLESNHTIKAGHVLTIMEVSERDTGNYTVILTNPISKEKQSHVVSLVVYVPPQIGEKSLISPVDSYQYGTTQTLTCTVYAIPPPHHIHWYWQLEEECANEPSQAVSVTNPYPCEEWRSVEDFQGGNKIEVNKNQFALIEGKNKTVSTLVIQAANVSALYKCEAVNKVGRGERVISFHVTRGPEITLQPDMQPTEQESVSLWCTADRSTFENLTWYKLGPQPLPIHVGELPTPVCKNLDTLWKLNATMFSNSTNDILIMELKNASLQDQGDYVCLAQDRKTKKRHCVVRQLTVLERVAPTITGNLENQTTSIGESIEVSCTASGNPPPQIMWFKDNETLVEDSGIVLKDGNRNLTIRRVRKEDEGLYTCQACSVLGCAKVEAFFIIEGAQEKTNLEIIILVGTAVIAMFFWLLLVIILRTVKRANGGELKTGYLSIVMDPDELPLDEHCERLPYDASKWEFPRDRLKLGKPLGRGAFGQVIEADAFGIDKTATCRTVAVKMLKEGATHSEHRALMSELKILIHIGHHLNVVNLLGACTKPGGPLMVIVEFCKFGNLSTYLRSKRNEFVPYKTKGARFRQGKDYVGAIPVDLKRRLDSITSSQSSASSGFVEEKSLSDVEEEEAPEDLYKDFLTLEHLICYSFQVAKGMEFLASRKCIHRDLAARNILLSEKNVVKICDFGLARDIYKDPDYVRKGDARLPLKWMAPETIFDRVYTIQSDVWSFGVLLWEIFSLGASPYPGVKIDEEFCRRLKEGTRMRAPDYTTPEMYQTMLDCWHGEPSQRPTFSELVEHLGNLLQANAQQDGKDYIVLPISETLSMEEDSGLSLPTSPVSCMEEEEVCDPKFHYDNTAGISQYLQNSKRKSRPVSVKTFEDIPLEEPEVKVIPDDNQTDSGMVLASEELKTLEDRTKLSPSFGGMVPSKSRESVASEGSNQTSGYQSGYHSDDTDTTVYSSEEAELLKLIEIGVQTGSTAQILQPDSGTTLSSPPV
Protocol: VEGF Rezeptor-2 Kinase Assay
Recombinant VEGF Receptor tyrosine kinase-2 was purified as GST-fusion protein from baculovirus-infected insect cells (Sf9). Poly-(Glu4Tyr), which was used as a kinase substrate, was purchased from the Sigma Company.
VEGF Receptor tyrosine kinase (90 ng/measuring point) was incubated for 10 minutes at 22° C. in the presence of various concentrations of test substances (0 μmol, as well as within the range of 0.001-30 μM) in 30 μl of assay buffer [40 mmol of Tris/HCl […], 10 mmol of MgCl2, 1 mmol of MnCl2, 3 μmol of Na orthovanadate, 1.0 mmol of dithiothreitol, 8 μmol of adenosine trisphosphate (ATP), 27 μg/measuring point of poly-(Glu4Tyr), 0.2 μCi/measuring point of ^33P-gamma ATP, 1% dimethyl sulfoxide]. The reaction was stopped by adding EDTA solution (250 mmol, pH 7.0, 10 μl/measuring point).
From each reaction batch, 10 μl was applied to P30 filter strips (Wallac Company), and non-incorporated 33P-ATP was removed by subjecting the filter strips to three washing cycles for 10 minutes each in 0.5% phosphoric acid. After the filter strips were dried for 1 hour at 70° C., the filter strips were covered with scintillator strips (MeltiLex™ A, Wallac Company) and baked on for 1 hour at 90° C. The amount of incorporated 33P (substrate phosphorylation) was determined by scintillation measurement in a gamma-radiation measuring device (Wallac).

H460 = test: Proliferation assay H460; assay type: cell-based; settings: Homo sapiens, NCI-H460, 96 h; Table II; 4 days incubation, crystal violet
Excerpt: as §1

MaTu-ADR = test: Proliferation assay MaTu-ADR; assay type: cell-based; settings: Homo sapiens, 96 h, read-out: Proliferation IC50 MaTu-ADR
Excerpt: as §1

HCT116 = test: Proliferation assay HCT116; assay type: cell-based; settings: Homo sapiens, HCT-116, 96 h; Table II; 4 days incubation, crystal violet
Excerpt: as §1

DU145 = test: Proliferation assay DU145; assay type: cell-based; settings: Homo sapiens, DU-145, 96 h; Table II; 4 days incubation, crystal violet
Excerpt: as §1

[2] = Table I, read-out: CDK2/CycE IC50
[3] = Table II, 4 days incubation, crystal violet
[4] = Table II, read-out: Inhibition IC50 CDK2/CycE
[5] = Table II, read-out: Proliferation IC50 MCF7

T1 sequence (P06493 whole entry): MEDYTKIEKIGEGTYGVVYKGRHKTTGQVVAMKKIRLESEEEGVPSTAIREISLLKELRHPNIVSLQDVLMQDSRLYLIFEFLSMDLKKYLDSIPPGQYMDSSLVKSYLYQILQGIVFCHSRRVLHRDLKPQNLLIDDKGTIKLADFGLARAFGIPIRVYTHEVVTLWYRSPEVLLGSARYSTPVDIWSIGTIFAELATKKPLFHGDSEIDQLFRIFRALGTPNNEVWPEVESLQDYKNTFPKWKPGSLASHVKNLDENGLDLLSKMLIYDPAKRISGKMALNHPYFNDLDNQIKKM
T1 sequence (P14635 whole entry partner): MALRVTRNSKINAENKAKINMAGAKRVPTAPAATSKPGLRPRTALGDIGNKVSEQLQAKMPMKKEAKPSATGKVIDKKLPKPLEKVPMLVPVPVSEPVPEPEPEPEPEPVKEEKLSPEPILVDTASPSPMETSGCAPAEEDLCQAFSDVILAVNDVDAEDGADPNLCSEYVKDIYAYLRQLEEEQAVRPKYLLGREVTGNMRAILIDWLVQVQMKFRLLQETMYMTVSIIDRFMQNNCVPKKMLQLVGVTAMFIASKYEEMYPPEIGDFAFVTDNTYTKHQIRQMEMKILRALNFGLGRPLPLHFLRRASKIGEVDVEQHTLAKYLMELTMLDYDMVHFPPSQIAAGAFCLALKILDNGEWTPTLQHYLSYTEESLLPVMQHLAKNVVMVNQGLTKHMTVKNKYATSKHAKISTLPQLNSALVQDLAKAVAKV

| SMILES | IC50 (CDK1/CycB) [nM] | IC50 (CDK2/CycE; [2]) [nM] | IC50 (MCF7; Table I, read-out: MCF7 IC50) [nM] | IC50 [1] [nM] | IC50 (H460) [nM] | IC50 (MaTu-ADR; [3]) [nM] | IC50 (CDK2/CycE; [4]) [nM] | IC50 (HCT116) [nM] | IC50 (MCF7; [5]) [nM] | IC50 (DU145) [nM] | IC50 (MaTu-ADR) [nM] |
| --- | --- | --- | --- | --- | --- | --- | --- | --- | --- | --- | --- |
| O=S1(=O)NCC(O)CNc2nc(ncc2Br)Nc2cccc1c2 (racemic) [Example 1.2, rac-1^5-Bromo-4-thia-2,5,9-triaza-1(2,4)-pyrimidina-3(1,3)-benzenacyclononaphan-7-ol-4,4-dioxide] | 40 | 510 | 2600 | – | – | – | – | – | – | – | – |
| O=S1(=O)NCCC(CO)Nc2nc(ncc2Br)Nc2cccc1c2 (single isomer, unassigned) [1.3 (+) Enantiomer] | – | 23 | 900 | 69 | – | – | – | – | – | – | – |
| O=S1(=O)NCCC(CO)Nc2nc(ncc2Br)Nc2cccc1c2 (single isomer, unassigned) [Example 1.3 (+) Enantiomer] | – | – | – | – | 2100 | 4000 | 23 | 1400 | 900 | 4000 | – |
| O=S1(=O)NCCCCCNc2nc(ncc2Br)Nc2cccc1c2 [Example 1.0, 1^5-Bromo-4-thia-2,5,11-triaza-1(2,4)-pyrimidina-3(1,3)-benzenacycloundecaphane 4,4-dioxides] | 200 | 420 | 1100 | – | 1800 | 700 | 420 | 1300 | 1100 | 2000 | – |
| O=S1(=O)NCCCNc2nc(ncc2Br)Nc2cccc1c2 [Example 1.1, 1^5-Bromo-4-thia-2,5,9-triaza-1(2,4)-pyrimidina-3(1,3)-benzenacyclononaphane-4,4-dioxide] | 20 | – | 200 | 40 | 300 | – | – | 200 | – | 2200 | 120 |
| Nc1cc2cc(c1)S(=O)(=O)NCCCNc1nc(ncc1Br)N2 [Example 1.4, 1^5-Bromo-4-thia-2,5,9-triaza-1(2,4)-pyrimidina-3(1,3)-benzenacyclononaphan-3^5-amine-4,4-dioxides] | – | – | 400 | 11 | 200 | 100 | – | < 100 | 400 | 700 | – |
| O=S1(=O)NCCCOc2nc(ncc2Br)Nc2cccc1c2 [Example 3.0, 1^5-Bromo-9-oxa-4-thia-2,5-diaza-1(2,4)-pyrimidina-3(1,3)-benzenacyclononaphane-4,4-dioxide] | 50 | 160 | 1600 | 89 | – | – | – | – | – | – | – |
| N#Cc1cnc2nc1NCCCNS(=O)(=O)c1cccc(c1)N2 [Example 5.0, 1^5-Cyano-4-thia-2,5,9-triaza-1(2,4)-pyrimidina-3(1,3)-benzenacyclononaphane 4,4-dioxide] | 300 | – | – | – | – | – | – | – | – | – | – |
| Brc1cnc2nc1NCCCCOc1cccc(c1)N2 [Example 7.1, 1^5-Bromo-4-oxa-2,9-diaza-1(2,4)-pyrimidina-3(1,3)-benzenacyclononaphane] | – | – | – | – | – | – | 2400 | – | 4000 | – | – |
| O=C1NCCCNc2nc(ncc2Br)Nc2cccc(c2)N1 [Example 10.0, 1^5-Bromo-2,4,6,10-tetraaza-1(2,4)-pyrimidina-3(1,3)-benzenacyclodecaphan-5-one] | 360 | 120 | 6000 | – | – | – | – | – | – | – | – |
| CCc1cnc2nc1NCCCCCNS(=O)(=O)c1cccc(c1)N2 [Example 14.2] | – | – | – | – | – | – | 5000 | – | – | – | – |
| O=S1(=O)NCCCC[C@@H](CO)Nc2nc(ncc2Br)Nc2cccc1c2 [Example 14.4] | 1700 | 250 | 4000 | – | – | – | 2000 | – | – | – | – |
| O=S1(=O)NCCCCNc2nc(ncc2Br)Nc2cccc1c2 [Example 14.6] | 90 | 320 | 700 | – | 700 | 300 | 320 | 500 | 700 | 1700 | – |
| O=S1(=O)NCCC(O)CNc2nc(ncc2Br)Nc2cccc1c2 (centres unmarked) [Example 14.8] | 200 | – | – | – | – | – | – | – | – | – | – |
| O=S1(=O)NCCCCNc2nc(ncc2Br)Nc2csc1c2 [Example 14.10] | – | 65 | 1900 | 190 | 100 | – | – | 100 | 300 | 400 | – |
| NS(=O)(=O)c1ccc2cc1OCCCCCNc1nc(ncc1Br)N2 [Example 14.11] | 200 | 2400 | 750 | – | 900 | 1300 | 2400 | 700 | 750 | 900 | – |
| O=S1(=O)N[C@H]2CC[C@@H](CC2)Nc2nc(ncc2Br)Nc2cccc1c2 [Example 14.15] | 1500 | 130 | 1300 | – | 1200 | 1300 | 1500 | 1000 | 1300 | 1200 | – |
| Cc1ccc2cc1S(=O)(=O)NCCCNc1nc(ncc1Br)N2 [Example 14.16] | 300 | 4400 | > 10000 | – | – | – | – | – | – | – | – |
| OCC1CCCOc2cccc(c2)Nc2ncc(Br)c(n2)N1 (centres unmarked) [Example 14.18] | 80 | 30 | 2100 | 370 | – | – | – | – | – | – | – |

From US7312225B2, “Macrocyclic pyrimidines, their production and use as pharmaceutical agents” (Bayer Schering Pharma AG, priority 2002, dated 2007)
